Experimental data as given in patent US7358258B2, “Prodrugs of an ERK protein kinase inhibitor” (Vertex Pharmaceuticals Incorporated, priority 2004, dated 2008).
Converted amounts (≈) assume the structure as drawn. Where a name gives a salt, the structure may show the parent alone.

Assay: Water solubility at the designated pH
Type: physicochemical
Description: As described herein, the present compounds are useful as prodrugs and, accordingly, impart improved physical and/or physiological characteristics over the parent compound. Such characteristics include half-life and water solubility. In certain embodiments, a compound of the present invention provides improvement with regard to one or more physical or physiological characteristics. In other embodiments, a compound of the present invention imparts improvement with regard to one or more physical and physiological characteristics. A summary of the results of comparison between certain compounds of the present invention and the parent compound is set forth in Table 3 below wherein all pharmacokinetic data reported was obtained in rat.
As used herein, the phrase “Relative AUC” refers to the ration of the area under the curve for a compound of the present invention and the area under the curve for the parent compound. Unless otherwise indicated, the data was obtained for the designated compound as the free base. The term “T½ (hr)” refers to the half life of the compound in hours. As used in Table 3, the term “Solubility” relates to the water solubility of the designated compound in mg per mL at the designated pH.

`CC[C@H](COP(=O)(O)O)Nc1ncc(C)c(-c2c[nH]c(C(=O)N[C@H](COP(=O)(O)O)c3cccc(Cl)c3)c2)n1` [I-23 (Na salt)] gave a solubility (water solubility at pH 7.15) of 3800 µg/mL.

`CC[C@H](COC(=O)[C@@H](NC)C(C)C)Nc1ncc(C)c(-c2c[nH]c(C(=O)N[C@H](COC(=O)[C@@H](NC)C(C)C)c3cccc(Cl)c3)c2)n1` [I-20 (HCl salt), 3-Methyl-2-methylamino-butyric acid 2-(4-{5-[1-(3-chloro-phenyl)-2-(3-methyl-2-methylamino-butyryloxy)-ethylcarbamoyl]-1H-pyrrol-3-yl}-5-methyl-pyrimidin-2-ylamino)-butyl ester, tris HCl salt] showed a solubility (water solubility at pH 3.8) of 7710 µg/mL.

Compound `CC[C@H](COC(C)=O)Nc1ncc(C)c(-c2c[nH]c(C(=O)N[C@H](COC(C)=O)c3cccc(Cl)c3)c2)n1` [I-1 (HCl salt)] has a solubility (water solubility at pH 2.2) of 19000 µg/mL.

`CC[C@H](COC(=O)[C@@H](N)C(C)C)Nc1ncc(C)c(-c2c[nH]c(C(=O)N[C@H](COC(=O)[C@@H](N)C(C)C)c3cccc(Cl)c3)c2)n1` [Compound I-10, 2-(S)-Amino-3-methyl-butyric acid 2-(4-{5-[2-(2-(S)-amino-3-methyl-butyryloxy)-1-(3-chloro-(S)-phenyl)-ethylcarbamoyl]-1H-pyrrol-3-yl}-5-methyl-pyrimidin-2-ylamino)-(S)-butyl ester] gave a solubility (water solubility at pH 3.3) of 11500 µg/mL (≈ 17.9 mM).

In the case of `CC[C@H](COC(=O)CCC(=O)O)Nc1ncc(C)c(-c2c[nH]c(C(=O)N[C@H](COC(=O)CCC(=O)O)c3cccc(Cl)c3)c2)n1` [Compound I-18, Succinic acid, mono-[2-(4-{5-[2-(3-carboxy-propionyloxy)-1-(3-chloro-(S)-phenyl)-ethylcarbamyl]-1H-pyrrol-3-yl}-5-methyl-pyrimidin-2-ylamino)-(S)-butyl]ester], the solubility (water solubility at pH 6.87) is reported as 12600 µg/mL (≈ 19.6 mM).

Compound `CC[C@H](COC(=O)COCCOC)Nc1ncc(C)c(-c2c[nH]c(C(=O)N[C@H](COC(=O)COCCOC)c3cccc(Cl)c3)c2)n1` [I-21 Ms salt] has a solubility (water solubility at pH 2.5) of 12400 µg/mL.

`CCC(CO)Nc1ncc(C)c(-c2c[nH]c(C(=O)NC(CO)c3cccc(Cl)c3)c2)n1` (centres unmarked) [Parent, 4-[2-(1-hydroxymethyl-propylamino)-5-methyl-pyrimidin-4-yl]-1H-pyrrole-2-carboxylic acid [1-(3-chloro-phenyl)-2-hydroxy-ethyl]-amide, reference compound] gave a solubility (water solubility at pH 1) of 4700 µg/mL (≈ 10.6 mM) and a solubility (water solubility at pH 7) of 15 µg/mL (≈ 0.0338 mM).
